Laboratory results reported in publication PMC8124228, “New Hybrids Based on Curcumin and Resveratrol: Synthesis, Cytotoxicity and Antiproliferative Activity against Colorectal Cancer Cells” (Molecules, 2021).
Read-outs that look alike come from different tables or passages of the source.

How the values were obtained:
[1] = tested on: non-malignant CHO-K1 cell line; test: Sulforhodamine B (SRB) cytotoxicity assay, non-malignant cells; format: cell-based; settings: Cricetulus griseus, mean ± SE
Experimental: (§1) To determine the cytotoxic effect of the synthesized hybrids, they were evaluated against SW480 human colon adenocarcinoma cells, its metastatic derivative SW620 and the non-malignant CHO-K1 cell line, through the sulforhodamine B assay. In this experiment, 5-FU was also included as the reference drug, as well as the parental subunits (curcumin and resveratrol) and the equimolar mixture of these. Cytotoxicity was reported as 50% inhibitory concentration (IC50 values).
(§2) Biological assays were performed using an adenocarcinoma colon cancer cell line (SW480), its metastatic derivative (SW620) and non-malignant cells (CHO-K1). These were obtained from The European Collection of Authenticated Cell Cultures (ECACC, England) and maintained in Dulbecco’s Modified Eagle Medium, supplemented with 10% heat-inactivated (56 °C) horse serum, 1% penicillin/streptomycin and 1% non-essential amino acids (Gibco Invitrogen, Carlsbad, USA). For all experiments, horse serum was reduced to 3%, and the medium was supplemented with […], 5 ng/mL selenium and […] (ITS-defined medium; Gibco, Invitrogen, Carlsbad, CA, USA).
(§3) Cytotoxicity of the synthesized hybrids, lead and reference compounds was evaluated through Sulforhodamine B (SRB) assay, a colorimetric test that is based on staining of total cellular protein of adherent cells. Cells were seeded to a final density of 20,000 cells/well in 96-well tissue culture plates and incubated at 37 °C in a humidified atmosphere at 5% CO2. All cultures were allowed to grow for 24 h, and afterward they were treated with DMSO (vehicle control 1%) or increasing concentrations (0.01–200 µM) of the synthesized hybrids, as well as curcumin and resveratrol (lead compounds), the equimolar mixture of these and 5-fluorouracil (5-FU; the standard drug). After treatment, cells were fixed with trichloroacetic acid (50% v/v) (MERCK) for a period of 1 h at 4 °C. Cell proteins were determined by staining with 0.4% (w/v) SRB (Sigma-Aldrich, United States), and then they were washed with 1% acetic acid for the removal of unbound SRB and left for air-drying. Protein bound SRB was solubilized in 10 mM Tris-base and the absorbance was measured at 492 nm in a microplate reader (Mindray MR-96A). All experiments were performed at least in triplicate.

[2] = tested on: SW620 cell line; test: Antiproliferative activity (SRB, 2-8 days), SW620; format: cell-based, human; settings: for viability at 10 µM / viability at 160 µM: Homo sapiens, vehicle control = 100%, read-out: Viability (%) ± SE; for viability at 10 µM: SW620, 10 µM; for viability at 160 µM: SW620, 160 µM
Experimental: With the aim of testing the antiproliferative effect of the most cytotoxic and selective hybrids (3e and 3i for SW480 and 3a, 3e and 3k for SW620), they were analyzed through a longer period. According to the results in comparison with the control, it was observed that the activity was time- and concentration-dependent, as evidenced by the decrease in cell viability in the highest concentrations (Table 2). […] Similar results were presented in a previous investigation by Herrera-R et al. (2018), reporting the antiproliferative effect and morphological changes in SW480 cells after treatment with different hybrids using a stilbene moiety, which highlights the potential of this scaffold in the approach to design molecules with potential activity against CRC.
Briefly, cells were seeded to a final density of 2500 cells/well in 96-well tissue culture plates and incubated in the same conditions described for cytotoxicity. […] Culture media was replaced every 48 h. After each incubation time, cells were fixed, stained and read as previously described for this technique.

[3] = tested on: SW620 cells (metastatic derivative of SW480); test: Sulforhodamine B (SRB) cytotoxicity assay, SW620; format: cell-based, human; settings: for SI (selectivity index): IC50 CHO-K1 / IC50 SW620; for IC50: Homo sapiens, SW-620, SRB, mean ± SE
Experimental: as §1, §2, §3

[4] = tested on: SW480 human colon adenocarcinoma cells; test: Sulforhodamine B (SRB) cytotoxicity assay, SW480; format: cell-based; settings: for SI (selectivity index): IC50 CHO-K1 / IC50 SW480; for IC50: Homo sapiens, SRB, mean ± SE
Experimental: as §1, §2, §3

| SMILES | melting point | IC50 ([1]; 24 h) | IC50 ([1]; 48 h) | viability at 10 µM ([2]; SW-620, 48 h, day 2) | viability at 160 µM ([2]; SW-620, 48 h, day 2) | viability at 10 µM ([2]; SW-620, 96 h, day 4) | viability at 160 µM ([2]; SW-620, 96 h, day 4) | viability at 10 µM ([2]; SW-620, 144 h, day 6) | viability at 160 µM ([2]; SW-620, 144 h, day 6) | viability at 10 µM ([2]; SW-620, 192 h, day 8) | viability at 160 µM ([2]; SW-620, 192 h, day 8) | reduction in viability ([2]; SW620, after two days of treatment, concentrations higher than 10 µM) | SI (selectivity index) ([3]; 24 h) | IC50 ([3]; 24 h) | IC50 ([3]; 48 h) | SI (selectivity index) ([4]; 24 h) | SI (selectivity index) ([4]; 48 h) | IC50 ([4]; SW480, 24 h, 24 h) | IC50 ([4]; SW480, 48 h, 48 h) | SI (selectivity index) ([3]; 48 h) |
| --- | --- | --- | --- | --- | --- | --- | --- | --- | --- | --- | --- | --- | --- | --- | --- | --- | --- | --- | --- | --- |
| COc1ccc(/C=C/c2ccc(C(=O)/C=C/c3ccc(O)c(OC)c3)cc2)cc1 [Hybrid 3b, (E)-3-(4-hydroxy-3-methoxyphenyl)-1-(4-((E)-4-methoxystyryl)phenyl)prop-2-en-1-one] | 187 to 190 °C | – | – | – | – | – | – | – | – | – | – | – | – | – | – | – | – | – | – | – |
| COc1cc(/C=C/C(=O)c2ccc(/C=C/c3cc(OC)c(OC)c(OC)c3)cc2)ccc1O [Hybrid 3k, (E)-3-(4-Hydroxy-3-methoxyphenyl)-1-(4-((E)-3,4,5-trimethoxystyryl)phenyl)prop-2-en-1-one] | 74 to 77 °C | 74.6 ± 4.2 µM | 29.4 ± 2.29 µM | 56.1 ± 4% | 2.4 ± 0.7% | 12.1% | 0% | 1.9 ± 0.8% | 0% | 0.1 ± 0.1% | 0% | significant reduction in viability | 3.65 | 20.4 ± 2.43 µM | 11.8 ± 1.2 µM | 0.84 | 0.34 | 88.5 ± 4.58 µM | 85.8 ± 1.27 µM | – |
| COc1cc(/C=C/C(=O)c2ccc(/C=C/c3ccc(O)c(OC)c3)cc2)ccc1O [Hybrid 3j, (E)-3-(4-Hydroxy-3-methoxyphenyl)-1-(4-((E)-4-hydroxy-3-methoxystyryl)phenyl)prop-2-en-1-one] | 142 to 146 °C | 42.1 ± 4.85 µM | 24.3 ± 5.21 µM | – | – | – | – | – | – | – | – | – | 1.50 | 28.1 ± 4.27 µM | 28.8 ± 4.57 µM | 5.28 | 0.59 | 7.98 ± 1.53 µM | 41.1 ± 7.8 µM | 0.84 |
| COc1ccc(OC)c(/C=C/c2ccc(C(=O)/C=C/c3ccc(O)c(OC)c3)cc2)c1 [Hybrid 3f, (E)-1-(4-((E)-2,5-Dimethoxystyryl)phenyl)-3-(4-hydroxy-3-methoxyphenyl)prop-2-en-1-one] | 47 to 51 °C | 112 ± 15.8 µM | 23.9 ± 4.01 µM | – | – | – | – | – | – | – | – | – | 2.36 | 47.4 ± 10.5 µM | 27.6 ± 4.99 µM | 1.33 | 0.27 | 84.4 ± 5.45 µM | 88.6 ± 1.84 µM | 0.86 |
| COc1cc(/C=C/C(=O)CC(=O)/C=C/c2ccc(O)c(OC)c2)ccc1O [Curcumin] | – | – | – | – | – | – | – | – | – | – | – | – | 0.12 | – | – | 0.24 | 0.40 | – | – | 1.63 |
| O=c1[nH]cc(F)c(=O)[nH]1 [Hybrid 5-FU, 5-fluorouracil, reference compound] | – | – | – | – | – | – | – | – | – | – | – | – | 0.59 | – | – | 0.35 | 0.99 | – | – | 0.96 |
| COc1cc(/C=C/C(=O)c2ccc(/C=C/c3ccc(O)cc3)cc2)ccc1O [Hybrid 3a, (E)-3-(4-Hydroxy-3-methoxyphenyl)-1-(4-((E)-4-hydroxystyryl)phenyl)prop-2-en-1-one] | 119 to 120 °C | 122 ± 15.5 µM | 51.6 ± 10.5 µM | 71.9 ± 1.9% | 16.1% | 10.7 ± 4.7% | 0% | 2.5 ± 0.5% | 0% | 0.2 ± 0.3% | 0% | – | 0.74 | 166 ± 11.8 µM | 20.2 ± 1.21 µM | 1.28 | 0.54 | 96 ± 2.76 µM | 95.1 ± 7.02 µM | – |
| COc1cc(/C=C/C(=O)c2ccc(/C=C/c3c(OC)cccc3OC)cc2)ccc1O [Hybrid 3g, (E)-1-(4-((E)-2,6-Dimethoxystyryl)phenyl)-3-(4-hydroxy-3-methoxyphenyl)prop-2-en-1-one] | 87 to 90 °C | 95 ± 1.67 µM | 32.4 ± 5.16 µM | – | – | – | – | – | – | – | – | – | 2.82 | 33.7 ± 4.2 µM | 27.6 ± 5.21 µM | 11.1 | 0.83 | 8.55 ± 2.47 µM | 39.1 ± 5.68 µM | 1.17 |
| Oc1ccc(/C=C/c2cc(O)cc(O)c2)cc1 [Resveratrol] | – | 118 ± 8.54 µM | 64 ± 8.92 µM | – | – | – | – | – | – | – | – | – | 0.22 | 549 ± 38.5 µM | 143 ± 4.03 µM | 0.77 | 0.52 | 154 ± 10.6 µM | 123 ± 4.48 µM | 0.45 |
| COc1cc(/C=C/C(=O)c2ccc(/C=C/c3ccc([N+](=O)[O-])cc3)cc2)ccc1O [Hybrid 3c, (E)-3-(4-hydroxy-3-methoxyphenyl)-1-(4-((E)-4-nitrostyryl)phenyl)prop-2-en-1-one] | 227 to 230 °C | > 3000 µM | > 3000 µM | – | – | – | – | – | – | – | – | – | – | > 3000 µM | > 3000 µM | >100 | >15 | 27.5 ± 2 µM | > 200 µM | – |
| COc1cc(/C=C/C(=O)c2ccc(/C=C/c3cc(OC)c(O)c(OC)c3)cc2)ccc1O [Hybrid 3l, (E)-1-(4-((E)-4-Hydroxy-3,5-dimethoxystyryl)phenyl)-3-(4-hydroxy-3-methoxyphenyl)prop-2-en-1-one] | 86 to 88 °C | 90 ± 8.55 µM | 24.8 ± 5.53 µM | – | – | – | – | – | – | – | – | – | 2.63 | 34.2 ± 5.09 µM | 29.8 ± 3.68 µM | 1.42 | 0.48 | 63.5 ± 8.16 µM | 51.8 ± 5.85 µM | 0.83 |
| COc1cc(/C=C/C(=O)c2ccc(/C=C/c3cccc(OC)c3OC)cc2)ccc1O [Hybrid 3d, (E)-1-(4-((E)-2,3-Dimethoxystyryl)phenyl)-3-(4-hydroxy-3-methoxyphenyl)prop-2-en-1-one] | 63 to 65 °C | 31 ± 2.93 µM | 12.4 ± 3.41 µM | – | – | – | – | – | – | – | – | – | 0.44 | 70.5 ± 3.8 µM | 26.1 ± 4.24 µM | 0.91 | 0.49 | 34.1 ± 3.92 µM | 25.2 ± 3.54 µM | 0.48 |
| COc1cc(/C=C/c2ccc(C(=O)/C=C/c3ccc(O)c(OC)c3)cc2)cc(OC)c1 [Hybrid 3h, (E)-1-(4-((E)-3,5-Dimethoxystyryl)phenyl)-3-(4-hydroxy-3-methoxyphenyl)prop-2-en-1-one] | 49 to 51 °C | 97.4 ± 2.62 µM | 23.2 ± 4.07 µM | – | – | – | – | – | – | – | – | – | 1.60 | 61 ± 12.8 µM | 21.4 ± 3.29 µM | 2.06 | 0.93 | 47.2 ± 8.39 µM | 24.9 ± 1.65 µM | 1.08 |
